Laboratory results reported in ChEMBL document CHEMBL3393039, “Anthranilic acid derivatives as nuclear receptor modulators--development of novel PPAR selective and dual PPAR/FXR ligands” (Bioorg Med Chem, 2015).
≈ marks a conversion by molar mass, not a printed value. Calls of active or inactive are those of the source. The rule behind the calls is not given here.

How the values were obtained:
[1] = target: T1, Peroxisome proliferator-activated receptor gamma (Homo sapiens) (UniProt P37231); assay: Transactivation of Gal4-tagged PPARgamma ligand binding domain (unknown origin) expressed in COS7 cells at 30 uM measured after overnight incubation by luciferase reporter gene assay; format: cell-based; settings: COS-7
T1 sequence (whole entry): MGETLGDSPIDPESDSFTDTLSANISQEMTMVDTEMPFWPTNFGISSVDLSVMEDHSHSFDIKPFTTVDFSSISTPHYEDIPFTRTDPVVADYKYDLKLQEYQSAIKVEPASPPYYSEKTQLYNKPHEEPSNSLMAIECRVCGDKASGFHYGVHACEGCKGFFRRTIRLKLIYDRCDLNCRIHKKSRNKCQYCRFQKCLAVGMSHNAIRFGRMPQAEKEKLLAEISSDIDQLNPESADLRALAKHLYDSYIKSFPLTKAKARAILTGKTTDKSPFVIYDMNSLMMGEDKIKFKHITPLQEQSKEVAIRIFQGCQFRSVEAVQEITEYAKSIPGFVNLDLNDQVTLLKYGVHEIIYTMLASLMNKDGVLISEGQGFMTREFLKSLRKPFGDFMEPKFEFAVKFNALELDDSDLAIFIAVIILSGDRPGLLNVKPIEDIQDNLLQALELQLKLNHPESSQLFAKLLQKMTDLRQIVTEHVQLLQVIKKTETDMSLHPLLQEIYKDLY

[2] = target: T2, Bile acid receptor (Homo sapiens, UniProt Q96RI1); assay: Transactivation of human FXR expressed in human HeLa cells incubated for 24 hrs by luciferase reporter gene assay; format: cell-based
T2 sequence (Q96RI1 whole entry): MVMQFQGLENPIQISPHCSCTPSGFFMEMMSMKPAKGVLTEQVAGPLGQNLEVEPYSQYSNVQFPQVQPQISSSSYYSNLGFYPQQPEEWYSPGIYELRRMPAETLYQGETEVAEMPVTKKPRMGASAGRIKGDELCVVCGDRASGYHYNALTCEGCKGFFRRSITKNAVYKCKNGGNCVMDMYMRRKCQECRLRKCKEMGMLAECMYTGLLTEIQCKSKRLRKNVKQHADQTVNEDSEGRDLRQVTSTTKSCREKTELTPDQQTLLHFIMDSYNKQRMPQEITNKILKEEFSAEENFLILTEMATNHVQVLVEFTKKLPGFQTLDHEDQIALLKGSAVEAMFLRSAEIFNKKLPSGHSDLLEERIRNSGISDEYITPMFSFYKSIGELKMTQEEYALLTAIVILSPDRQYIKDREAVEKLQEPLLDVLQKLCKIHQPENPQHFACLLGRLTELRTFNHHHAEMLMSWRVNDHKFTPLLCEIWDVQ

[3] = target: T3, Peroxisome proliferator-activated receptor delta (Homo sapiens) (UniProt Q03181); assay: Transactivation of Gal4-tagged PPARdelta ligand binding domain (unknown origin) expressed in COS7 cells at 30 uM measured after overnight incubation by luciferase reporter gene assay; format: cell-based; settings: COS-7
T3 sequence (whole entry): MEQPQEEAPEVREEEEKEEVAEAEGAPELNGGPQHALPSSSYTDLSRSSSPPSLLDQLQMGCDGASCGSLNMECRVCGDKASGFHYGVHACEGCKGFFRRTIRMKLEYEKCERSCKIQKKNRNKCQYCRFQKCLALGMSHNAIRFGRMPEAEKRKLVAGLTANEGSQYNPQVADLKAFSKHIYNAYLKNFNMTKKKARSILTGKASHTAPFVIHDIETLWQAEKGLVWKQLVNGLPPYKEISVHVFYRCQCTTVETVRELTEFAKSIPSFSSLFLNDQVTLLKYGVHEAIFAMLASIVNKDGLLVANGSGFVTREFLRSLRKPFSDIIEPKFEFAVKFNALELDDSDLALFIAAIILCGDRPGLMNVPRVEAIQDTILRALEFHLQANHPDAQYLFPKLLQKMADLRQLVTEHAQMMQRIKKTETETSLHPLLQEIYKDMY

[4] = target: T4, Bile acid receptor (Homo sapiens) (UniProt Q96RI1); assay: Transactivation of human FXR expressed in human HeLa cells incubated for 24 hrs by luciferase reporter gene assay relative to GW4064; format: cell-based
T4 sequence (whole entry): T2 sequence (Q96RI1 whole entry)

[5] = target: T5, Peroxisome proliferator-activated receptor alpha (Homo sapiens) (UniProt Q07869); assay: Transactivation of Gal4-tagged PPARalpha ligand binding domain (unknown origin) expressed in COS7 cells at 30 uM measured after overnight incubation by luciferase reporter gene assay; format: cell-based; settings: COS-7
T5 sequence (whole entry): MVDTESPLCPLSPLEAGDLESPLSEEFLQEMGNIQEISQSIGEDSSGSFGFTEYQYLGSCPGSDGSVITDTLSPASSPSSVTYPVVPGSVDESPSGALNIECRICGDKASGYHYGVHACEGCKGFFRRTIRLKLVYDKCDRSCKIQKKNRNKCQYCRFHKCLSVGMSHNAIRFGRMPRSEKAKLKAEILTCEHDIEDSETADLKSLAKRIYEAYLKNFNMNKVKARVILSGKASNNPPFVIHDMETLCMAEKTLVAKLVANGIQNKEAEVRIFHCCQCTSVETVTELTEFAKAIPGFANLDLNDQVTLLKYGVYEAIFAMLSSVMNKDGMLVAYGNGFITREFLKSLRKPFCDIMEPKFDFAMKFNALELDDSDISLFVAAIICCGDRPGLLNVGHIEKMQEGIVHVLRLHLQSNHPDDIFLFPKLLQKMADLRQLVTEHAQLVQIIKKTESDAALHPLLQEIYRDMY

[6] = target: T3, Peroxisome proliferator-activated receptor delta (Homo sapiens); assay: Transactivation of Gal4-tagged PPARdelta ligand binding domain (unknown origin) expressed in COS7 cells measured after overnight incubation by luciferase reporter gene assay relative to L165,041; format: cell-based; settings: Chlorocebus aethiops; COS-7
[7] = target: T6, Peroxisome proliferator-activated receptor delta (Homo sapiens, UniProt Q03181); assay: Transactivation of Gal4-tagged PPARdelta ligand binding domain (unknown origin) expressed in COS7 cells measured after overnight incubation by luciferase reporter gene assay; format: cell-based, COS-7
T6 sequence (Q03181 whole entry): T3 sequence (whole entry)

[8] = target: T5, Peroxisome proliferator-activated receptor alpha (Homo sapiens); assay: Transactivation of Gal4-tagged PPARalpha ligand binding domain (unknown origin) expressed in COS7 cells at 10 uM measured after overnight incubation by luciferase reporter gene assay; format: cell-based; settings: COS-7
[9] = target: T7, Peroxisome proliferator-activated receptor gamma (Homo sapiens, UniProt P37231); assay: Transactivation of Gal4-tagged PPARgamma ligand binding domain (unknown origin) expressed in COS7 cells measured after overnight incubation by luciferase reporter gene assay; format: cell-based, COS-7
T7 sequence (P37231 whole entry): T1 sequence (whole entry)

[10] = target: T1, Peroxisome proliferator-activated receptor gamma (Homo sapiens); assay: Transactivation of Gal4-tagged PPARgamma ligand binding domain (unknown origin) expressed in COS7 cells measured after overnight incubation by luciferase reporter gene assay relative to piaglitazone; format: cell-based; settings: Chlorocebus aethiops; COS-7
[11] = target: T8, Peroxisome proliferator-activated receptor alpha (Homo sapiens, UniProt Q07869); assay: Transactivation of Gal4-tagged PPARalpha ligand binding domain (unknown origin) expressed in COS7 cells measured after overnight incubation by luciferase reporter gene assay; format: cell-based, COS-7
T8 sequence (Q07869 whole entry): T5 sequence (whole entry)

[12] = target: T4, Bile acid receptor (Homo sapiens); assay: Transactivation of human FXR expressed in human HeLa cells at 30 uM incubated for 24 hrs by luciferase reporter gene assay; format: cell-based
[13] = Cytotoxic activity against human HepG2 cells assessed as LDH release at 30 uM after 48 hrs by LDH release assay (reference value: 100%)
[14] = Antiproliferative activity against human HepG2 cells assessed as cell viability at 10 uM after 48 hrs by WST1 assay (reference value: 100%); format: cell-based; settings: read-out: Activity
[15] = Antiproliferative activity against human HepG2 cells assessed as cell viability at 50 uM after 48 hrs by WST1 assay (reference value: 100%); format: cell-based; settings: read-out: Activity
[16] = Aqueous solubility of the compound; format: physicochemical; settings: aqueous medium (not specified further)
[17] = Cytotoxic activity against human HepG2 cells assessed as LDH release at 10 uM after 48 hrs by LDH release assay (reference value: 100%)
[18] = Cytotoxic activity against human HepG2 cells assessed as LDH release at 5 uM after 48 hrs by LDH release assay (reference value: 100%)
[19] = Antiproliferative activity against human HepG2 cells assessed as cell viability at 5 uM after 48 hrs by WST1 assay (reference value: 100%); format: cell-based; settings: read-out: Activity

SMILES	Activity [1]	EC50 [2]	Activity [3]	max activation [4]	Activity [5]	max activation [6]	EC50 [7]	max activation [8]	EC50 [9]	max activation [10]	EC50 [11]	Activity [12]	LDH release (% cytotoxicity) at 48 h, 30 µM [13]	viability at 48 h, 10 µM [14]	viability at 48 h, 50 µM [15]	solubility [16]	LDH release (% cytotoxicity) at 48 h, 10 µM [17]	LDH release (% cytotoxicity) at 48 h, 5 µM [18]	viability at 48 h, 5 µM [19]
CC(C)(C)c1ccc(C(=O)Nc2ccccc2C(=O)Nc2cccc(C(N)=O)c2)cc1	inactive	70 nM	inactive	15%	inactive														
O=C(O)c1cccc(NC(=O)c2cc(Cl)ccc2NC(=O)c2ccc(C(F)(F)F)cc2)c1		3400 nM		16.9%		24%	6.3 µM	25%	4.7 µM	415%									
O=C(O)Cc1cccc(NC(=O)c2ccccc2NC(=O)c2ccc(C(F)(F)F)cc2)c1		2600 nM		14.8%		58%	2.2 µM		9.4 µM	161%	5.4 µM								
CC(C)(C)c1ccc(C(=O)Nc2ccccc2C(=O)Nc2cccc(CCC(=O)O)c2)cc1		60 nM	inactive	22%					5 µM	175%	5.4 µM								
O=C(O)CCc1cccc(NC(=O)c2ccccc2NC(=O)c2ccc(C(F)(F)F)cc2)c1		2300 nM		13%		120%	6.8 µM		6.9 µM	70%	5.9 µM								
CSc1ccc(C(=O)Nc2ccccc2C(=O)Nc2cccc(CC(=O)O)c2)cc1		8500 nM		16.9%		133%	7.4 µM		17.4 µM	200%	14.4 µM								
O=C(O)CCCNC(=O)c1ccccc1NC(=O)c1cccc2ccccc12			inactive					12%	41 µM	397%		inactive							
Cc1ccc(C(=O)O)cc1NC(=O)c1ccccc1NC(=O)c1ccc(C(C)(C)C)cc1			inactive		inactive				6.3 µM	163%		inactive	37.3%	92.2%	72%	2.6 µM (≈ 1.12 µg/mL)	0.7%	-1.3%	95.7%
CC(C)(C)c1ccc(C(=O)Nc2ccccc2C(=O)Nc2cc(C(=O)O)ccc2F)cc1			inactive	12%				17%	5.8 µM	735%									
Cc1ccc(NC(=O)c2ccccc2NC(=O)c2ccc(C(C)(C)C)cc2)cc1C(=O)O			inactive	22%					5 µM	98%	0.21 µM		28.4%	99.6%	82.5%	4.9 µM (≈ 2.11 µg/mL)	2.2%	-0.1%	106%
